Measured values: a melting point compilation (Tetko et al.; mined from patent text by program, amines drawn as free bases though some values may be those of a salt)

| Structure (SMILES) | melting point |
| --- | --- |
| OC1c2cc(OCc3ccccn3)ccc2OCC1Cc1cccnc1 (configuration not stated) | 108 to 110 °C |
| CC(C)c1c(C=O)c(-c2ccc(F)cc2)nn1-c1ccccc1 | 103 to 105 °C |
| Cn1c(C(F)(F)F)cc(=O)n(-c2c(F)cc(Cl)c3nc(N)oc23)c1=O | 144 to 150 °C |
| CCCCCCCCCCCCCCCCC(OC)C(=O)OC (configuration not stated) | 33 to 36 °C |
| Fc1ccc(CN2CCN(C3CC=C(c4ccc(C(F)(F)F)cc4)CC3)CC2)cc1 (configuration not stated) | 108 to 109 °C |
| CC(C)(C)c1ccc([C@H]2CCCN2[S@@](=O)C(C)(C)C)cc1 | 45 to 50 °C |
| CN(C(=O)c1ccc(-c2ccccc2)cc1)C1N(C)C(c2ccc(F)cc2)=NC1(C(F)(F)F)C(F)(F)F (configuration not stated) | 186 to 187 °C |
| COc1cc(CC(=O)N2CCN(C(=O)CNC3CCN(Cc4ccccc4)CC3)C(c3ccccc3)C2)cc(OC)c1OC (configuration not stated) | 53 to 56 °C |
| COc1cccc(C(=O)N2CCCC3=C2CCc2cc(Cl)ccc23)c1 | 133 °C |
| CCOP(=O)(COCCOn1cnc2c(N)ncnc21)OCC | 74 to 76 °C |
| CCCc1c(OCCCC(=O)NCCc2cccnc2)ccc(C(C)=O)c1O | 94 to 96 °C |
| CCc1cccc(CCC(O)c2ccccc2)c1NC(=O)CC1c2ccccc2Oc2ccccc21 (configuration not stated) | 192 to 193 °C |
| Cc1nc(-c2ccccc2)n[nH]c1=O | 75 to 76 °C |
| Cc1ccc(C=CC(=O)NCCCCN2CCN(C(c3ccccc3)c3ccccc3)CC2)cn1 | 129 to 131 °C |
| COc1ccc(CCC(=O)CC(=O)CCc2ccc(OC)cc2)cc1 | 73.5 to 76.2 °C |
| CCOC(=O)c1ccc(NS(C)(=O)=O)c([N+](=O)[O-])c1 | 124 °C |
| CC(=NOCCOc1ccc(CC2SC(=O)NC2=O)cc1)c1ccc(-c2ccccc2)nc1 (configuration not stated) | 186 to 187 °C |
| CC(C)(C)NC(=O)c1ccc(Cl)c(C(F)(F)F)c1 | 131 °C |
| Cc1oc(-c2ccccc2)nc1COc1ccc(COc2nn(-c3ccccc3)cc2CC(=O)O)cc1 | 151 to 152 °C |
| CC(=O)Nc1ccc(OC2CCC3C4CCC5N(C)C(=O)CCC5(C)C4CCC23C)cc1 (configuration not stated) | 340 °C |
| Cc1ccc(-c2nc(CO[C@H]3CCC[C@@H](C(=O)N[C@H](C(=O)O)C(C)C)C3)c(C)o2)cc1 | 195 to 196 °C |
| COc1cc(Nc2nccc(Nc3cccc(CCO)c3)n2)cc(OC)c1OC | 72 °C |
| c1ccc(Cn2c(-c3ccc4c(c3)OCO4)nc3ccccc32)cc1 | 143 to 145 °C |
| CONC(=O)Nc1ccc(-c2sc3c(c2CN(C)CCc2ccccn2)c(=O)n(-c2ccccn2)c(=O)n3Cc2c(F)cccc2F)cc1 | 194 to 196 °C |
| CC(=O)[C@H]1CC[C@H](CNC(=O)OCc2ccccc2)CC1 | 66 to 67 °C |

| Structure (SMILES) | melting point |
| --- | --- |
| COc1ccc(S(=O)(=O)C2(C(=O)O)CCN(C(C)(C)C)CC2)cc1 | 204 °C |
| CN(c1cccc2cc(C3=NCC(CC(=O)NCCO)S3)[nH]c12)S(=O)(=O)c1cccs1 (configuration not stated) | 214 °C |
| O=C(O)c1cccc(-c2cccc(OCCc3cccc(F)c3)n2)c1 | 142 to 143 °C |
| CC(=O)Oc1cc(CNC=C2C(=O)NC(=O)c3ccc(Br)cc32)cc(OC(C)=O)c1 | 257 to 258 °C |
| NS(=O)(=O)c1cc(C(=O)O)cc(NCCCC(=O)O)c1Oc1ccccc1 | 240 to 241 °C |
| CCCOC(=O)C(Br)=CC1C(C(=O)OC(C#N)c2cccc(Oc3ccccc3)c2)C1(C)C (configuration not stated) | 64 °C |
| CCCCc1nc(N)c(N=Nc2ccccc2)c(=O)[nH]1 | 266 to 270 °C |
| Cc1cc(OCCc2ccccc2)ccc1[N+](=O)[O-] | 70 to 72 °C |
| O=C1Nc2cc(Cl)ccc2C1c1ncnc2c1cnn2C1CCCC1 (configuration not stated) | 288 to 291 °C |
| COc1ccc(I)cc1C(=O)O | 150 to 152 °C |
| CCO/C(=N/OC(C)=O)C1Cc2cc(C(=O)c3ccccc3F)c(O)c(Cl)c2O1 (configuration not stated) | 111 to 112 °C |
| CCCCc1c(C(=O)OCC)cc(OC(C)=O)c2c(OC)cccc12 | 86 to 88 °C |
| CCCCCCCCCCCCCCCCCCOc1ccc(C(=O)O)c(OCCCOc2ccc(OCc3ccccc3)cc2)c1 | 102 to 104 °C |
| O=C(O)/C=C/c1cc(F)c2ncc(C(=O)NCc3ccc(Cl)cc3)c(O)c2c1 | 296 to 298 °C |
| Fc1ccc2c(C3CCN(C(=S)Nc4ccccc4)CC3)nn(-c3ccccc3)c2c1 | 151 to 153 °C |
| CCN(CC)CC1CCCCN1CCCCN1c2ccccc2C(=O)Nc2cccnc21 (configuration not stated) | 112 °C |
| CCc1cccc2c3c([nH]c12)C(C)(CC(=O)O)CCCC3 (configuration not stated) | 148 to 151 °C |
| CCOC(=O)c1cn([C@@H](C)COS(C)(=O)=O)c2c(F)c(-c3cc(C)nc(C)c3)c(F)cc2c1=O | 180 to 183 °C |
| CS(=O)(=O)c1ccc(-c2ccccc2-c2ccc(F)cc2)cc1 | 178 to 179 °C |
| CCCCNc1nc2cccc(C(=O)OC)c2n1Cc1ccc(-c2ccccc2-c2nnn[nH]2)cc1 | 163 to 167 °C |
| O=C1c2ccc(C#Cc3ccccc3)cc2C(=O)N1c1ccc2c(c1)C=C2 | 194 to 195 °C |
| CNC(=O)NN=Cc1ncc([N+](=O)[O-])n1C | 221 to 223 °C |
| CC(NC(=O)OCc1ccccc1)C(=O)N1CC(=O)N(CC(N)=O)C1(C)C (configuration not stated) | 206 to 210 °C |
| CC(=O)c1cc(S(=O)(=O)c2ccccc2)ccc1O | 156 to 157 °C |
| O=C1NCCNC1c1cn(Cc2ccccc2Cl)c2ccccc12 (configuration not stated) | 181 °C |

| Structure (SMILES) | melting point |
| --- | --- |
| COc1ccc2c(c1)c(=O)[nH]c1c2c2ccccc2n1C | 250 °C |
| CC(C(=O)O)c1ccc2nc3ccc(S(C)(=O)=O)cn3c(=O)c2c1 (configuration not stated) | 240 °C |
| CC1(C)CC(=O)OC(C(Cl)(Cl)Cl)C1Br (configuration not stated) | 98.5 to 99.5 °C |
| Cc1cccc(C)c1NC(=O)CN1CCNCC1CC(N)=O (configuration not stated) | 172 °C |
| O=[N+]([O-])c1ccccc1-c1cnoc1 | 51 to 54 °C |
| CSC1C(=O)Nc2c(Oc3ccccc3)cccc21 (configuration not stated) | 149 to 150 °C |
| COC(=O)c1nc(C)n2c1C(C)N=C(c1ccccc1)c1cc(Cl)ccc1-2 (configuration not stated) | 217 to 221 °C |
| COc1nc(C)nc(NC(=O)NS(=O)(=O)c2c(C)cccc2OCCF)n1 | 161 °C |
| O=C(c1ccc(-c2cc(-c3c[nH]nc3-c3ccccn3)ccn2)cc1)N1CCOCC1 | 155 °C |
| COc1ccc(N(CCCC(=O)O)C(=O)C(C)N(C(C)=O)c2ccc(OC)cc2)cc1 (configuration not stated) | 155 to 157 °C |
| CC[C@H](C)[C@H](NC(=O)[C@H](Cc1ccc(O)cc1)NC(=O)OC(C)(C)C)C(=O)NCCCBr | 96 to 100 °C |
| Cc1cc(=O)c(OCc2ccccc2)c(CO)o1 | 115 to 116 °C |
| CCCN([C@H]1COc2c(F)ccc(C(N)=O)c2C1)C(C)(C)C | 70 to 75 °C |
| COC(=O)c1cc2cc(OC)c(OC)cc2c(-c2ccnc(-n3c(=O)cc(NCCCn4ccnc4)c4ccccc43)c2)c1C(=O)OC | 142 to 148 °C |
| O=C(Nc1ccc2ccc(N3CCCC3)nc2n1)c1ccccc1 | 130 °C |
| CC(=O)OC1CC2CCC3C(CCC4(C)C3CC(N3CCCCC3)C4OC(C)=O)C2(C)CC1N1CCOCC1 (configuration not stated) | 119 to 128 °C |
| CCCCCCCCCCCCCCCCOc1ccc(-c2nc(CC(=O)O)c(Oc3ccc(Cl)cc3)o2)cc1 | 76 to 77 °C |
| CCOC(=O)C(C(=O)OCC)=C1CN(C)C(=O)c2ccccc2N1 | 139 °C |
| NNC(=O)c1ncn2c1[C@@H]1CCCN1C(=O)c1sccc1-2 | > 260 °C |
| CNN1C(=O)CSC1=Cc1cc(C(C)(C)C)c(O)c(C(C)(C)C)c1 | 151 to 154 °C |
| CCCCCCCCCCCCCCC(COC(C)=O)(COC(C)=O)NC(C)=O | 84 to 85.5 °C |
| OCC1CCCN(c2nc(-c3ccccc3)nc3ccccc23)C1 (configuration not stated) | 116 to 118 °C |
| COC(=O)CCC(=O)c1ccc(-c2ccc(C#N)cc2)cc1 | 149 to 151 °C |
| CC(C)c1nc(C(=O)NC2CC2)c(C(=O)O)o1 | 109 to 112 °C |
| O=C1c2cccc3cc4ccccc4c(c23)C(=O)N1CCCNCCCNCCCN1C(=O)c2cccc3cc4ccccc4c(c23)C1=O | 140 °C |

| Structure (SMILES) | melting point |
| --- | --- |
| COc1cc(C=C(C)[N+](=O)[O-])ccc1OCC(=O)O | 116 to 117 °C |
| CCCC1=C(C#N)C(c2cccc3nsnc23)c2c[nH]nc2N1 (configuration not stated) | 195 °C |
| COc1ccc(C(=O)Nc2ccc(COc3ccc4c(c3)CCC(CN(C)C)C4)cc2)cc1 (configuration not stated) | 155 to 159 °C |
| CCCO/N=C(\C(=O)OC)c1csc(N)n1 | 115 to 116 °C |
| Nc1c(C(=O)c2cc(Cl)ccc2[N+](=O)[O-])[nH]c2cc(Cl)ccc12 | 233 to 234 °C |
| N#Cc1cc(N(CC(=O)O)C(=O)c2cccn2-c2ccc(F)cc2)ccc1N1CCCCC1 | 117 to 120 °C |
| Nc1ccc(S(=O)(=O)Nc2nnc(S(N)(=O)=O)s2)cc1 | 241 to 242 °C |
| COc1ccc(C2COc3cc(O)c(O)cc3C2)cc1 (configuration not stated) | 160 °C |
| CCOC(=O)c1cn(C(c2ccccc2)(c2ccccc2)c2ccccc2)cn1 | 163 to 164 °C |
| CCCCCCCCCCCCCCCCCC(=O)NCC(O)CO (single isomer, unassigned; (+)) | 112 to 114 °C |
| COC(=O)c1ccc(NCc2ccccc2)cn1 | 104 to 107 °C |
| CCC(CS(=O)(=O)c1ccc(-c2ccc(OC)cc2)cc1)N(O)C=O (configuration not stated) | 199 to 200 °C |
| Cc1ccc(C)c(C(Cl)=NNc2ccccc2)c1 | 48.5 to 49 °C |
| Cc1oc(-c2ccccc2)nc1CCOc1cccc2sccc12 | 130 to 132 °C |
| CCOC(=O)c1[nH]c2cc(Br)c(Cl)cc2c1-c1ccccc1F | 193 to 194 °C |
| O=C1NCC(CCN2CCN(c3ccccc3F)CC2)O1 (configuration not stated) | 121 to 124 °C |
| COc1ccc2c(O)n[nH]c2c1OC | 175 °C |
| O=c1c2[nH]c(N(S(=O)(=O)c3ccccc3)S(=O)(=O)c3ccccc3)nc2n(CC2CC2)c(=O)n1CC1CC1 | 238 °C |
| Nc1nc2ccccc2c2c1ncn2Cc1ccncc1 | > 300 °C |
| COc1ccc(C=CC2=NN(C(C)=O)C(C)Cc3cc(OC)c(OC)cc32)c(OC)c1 (configuration not stated) | 85 to 87 °C |
| CN(c1cccc2cc(C3=NCC(CC(N)=O)S3)[nH]c12)S(=O)(=O)c1cccs1 (configuration not stated) | 193 to 194 °C |
| ClCCOc1cc(-c2cccs2)n[nH]1 | 134 to 138 °C |
